Reference: patent publication US8993632B2, “Inhibitors of the 11-beta-hydroxysteroid dehydrogenase type 1 enzyme” (AbbVie Inc., priority 2005, dated 2015)

What was measured:
CD-1 mice = experiment: 24-hour inhibitory avoidance task in mice after drug-in-diet dosing; format: in vivo; settings: both doses (10 and 100 mg/kg/day in Western diet), vs vehicle control mice
Description: The 24-hour inhibitory avoidance task in mice is a measure of one-trial learning and memory consolidation in response to a discrete aversive event (foot-shock). Mice are first placed in an illuminated compartment of a two-compartment apparatus. Mice will naturally step through into an adjoining dark compartment, which they prefer. When the mice enter the dark they receive a mild foot-shock. To assess memory, mice are tested 24 hours later and the length of time the animal refrains from entering the dark compartment is recorded (higher latencies indicate improved memory for the aversive event).
Male CD-1 mice were obtained from Charles River, Wilmington, Mass. Mice were group-housed 10 per cage. The body weight upon arrival was 20-25 g. Food and water were available ad libitum except during experiments. […]
On the first day of testing (17 days after drug-in-diet was presented) mice were removed from the colony room in their home cage, brought to the testing room, and left undisturbed for 2 hours prior to testing initiation. […] The latency to enter the dark chamber was recorded and was the dependent variable measured for assessing memory retention (latency is defined as entry of the whole mouse; all 4 paws on the grids in the dark side, plus the tail in the chamber for 5 sec; 180 sec is maximum latency). Data were analyzed using Mann Whitney U comparisons. […]

HSD-1 = experiment: Monkey ex vivo HSD1 activity (cortisone to cortisol in harvested tissue); set-up: species or system Cynomolgus Monkeys; settings: for HSD-1 ex vivo activity, Mean % Veh Control: single 10 mg/kg oral dose
Description: Harvested tissues (approximately 150 mg) were minced into small, 2 mm pieces in the presence of 5× volume of incubation buffer. Cortisone at final concentrations of 0, 3, 10 or 30 μM was added to each well. Cell culture plates with tissues were incubated at 37° C. for three hours. Two-hundred μL of tissue culture supernatant was then removed and spun at 1000 rpm in an Eppindorf tube, and then 100 μL of resulting supernatant was aliquotted into two tubes for LCMS analysis of cortisol.

phosphorylated CREB = experiment: Phosphorylated CREB immunohistochemistry in brain after food-in-diet dosing; format: in vivo, mice; settings: 18 days food-in-diet (10 and 100 mg/kg/day)
Description: In vivo signaling studies were conducted to examine the biochemical pathways that may be mechanistically involved in the cognitive efficacy associated with Compound KK. An important signaling process that serves as a biochemical correlate of synaptic plasticity underlying learning and memory is the phosphorylation of CREB (c-AMP-response element binding protein), a transcription factor critical to long-term memory. To investigate the effects of Compound KK on CREB phosphorylation, CD1 mice treated and tested (data presented in FIG. 1) were given a 24-hour rest after testing before immunohistochemical procedures commenced.
Male CD-1 mice were obtained from Charles River, Wilmington, Mass. Mice were group-housed 10 per cage. The body weight upon arrival was 20-25 g. […]
Compound KK was administered via a drug-in-diet administration (100 mg/kg/day in Western diet) or (10 mg/kg/day in Western diet). […] Immuno-reactivity (IR) was quantified using an image analysis system (Leica, Quantimet 500) that determined number and/or area of peroxidase substrate-positive stained neurons from digitized photomicrographs according to a pixel gray level empirically determined prior to analysis. Overall statistical significance was determined using a one-way ANOVA, with Dunnett's post hoc analyses used to determine significance (p<0.05 was considered significant).

Sprague Dawley rats = experiment: Short-term social recognition memory in the rat; format: in vivo; settings: 30 mg/kg po at 24, 18 and 1 hour before first juvenile exposure, vs vehicle control rats
Description: Social memory and social cognition are impaired in disorders such as Alzheimer's disease and schizophrenia. One of the more commonly used preclinical models of social recognition memory is short-term social recognition in the rat, a model of short-term memory based on the recognition of a juvenile rat by an adult rat. […] The juvenile rat is then removed and reintroduced 120 min later, and interactive behavior of the adult rat is again monitored. If memory has been lost over the interval between trials 1 and 2, the extent of interaction is equal (expressed as a ratio of investigation time of T1/T2) and the ratio will be close to 1. However, if the adult remembers the juvenile, the investigation ratio declines. To test for non-specific effects, a novel juvenile is introduced at 120 minutes instead of the familiar juvenile. […]
Rats were pre-dosed po at 24, 18 and 1 hour before first juvenile rat exposure with vehicle, or Compound MM (30 mg/kg). […] The time the adult spent exploring (sniffing, grooming, close following) the juvenile during this test session was recorded, and defined as the first investigation duration. […] Data were analyzed using a one-way analysis of variance. If there was a significant effect, subsequent post hoc significance was determined using Dunnett's multiple comparison testing (p<0.05 was regarded as significant).

Fisher rats = experiment: Rat EEG REM sleep parameters; format: in vivo; settings: 30 mg/kg, 3 times at 24, 26, and 0.1 hours before measurement; 8 h EEG
Description: EEG of Fisher rats (n=8/group) with chronically implanted supracortical EEG-electrodes were analyzed for an 8 h period. Intraindividual drug-induced changes of power spectra were analyzed. For REM sleep the number of REM episodes, latency to first REM, and total REM time was analyzed.

serotonin (5-HT) levels = experiment: Microdialysis, cortical/hippocampal serotonin levels; format: in vivo, Sprague Dawley rats; settings: single administration 30 mg/kg, p.o.
Description: (§1) Microdialysis studies (resting or challenging conditions) in freely moving, male Sprague Dawley rats (Janvier, 295-315 g, n=5-8/treatment group) were performed using stereotactically instrumented microdialysis probes (CMA/12-14-2): mPFC, hippocampus. Aliquots of the same microdialysate fractions (6 before, and 9-12 after compound administration) were analyzed either for acetylcholine or for serotonin by HPLC and electrochemical detection.
This is a feature shared by marketed anti-depressive drugs and might indicate the potential use for 11β-HSD1 inhibitors as antidepressants/anxiolytic drugs. These findings remain to be confirmed by (i) investigating 11β-HSD1 inhibitors from different chemotype(s) in selected microdialysis studies and/or (ii) in animal models of depression/anxiety.

ACh release = experiment: Microdialysis, cortical/hippocampal acetylcholine levels; format: in vivo, Sprague Dawley rats; settings: single administration 30 mg/kg, p.o.
Description: as §1

| Compound | memory retention (Mean Transfer Latency), FIG. 1 (CD-1 mice) | ex vivo inhibition of HSD1 in monkey brain, fat and liver (HSD-1; 2.5 and 16 hours following a single oral 10 mg/kg dose) | HSD-1 ex vivo activity, Mean % Veh Control (HSD-1; Cerebral Cortex, 16 hours) [%] | HSD-1 ex vivo activity, Mean % Veh Control (HSD-1; Hippocampus, 16 hours) [%] | HSD-1 ex vivo activity, Mean % Veh Control (HSD-1; Liver, 2.5 hours) [%] | HSD-1 ex vivo activity, Mean % Veh Control (HSD-1; Liver, 16 hours) [%] | HSD-1 ex vivo activity, Mean % Veh Control (HSD-1; Mesenteric Fat, 2.5 hours) [%] | HSD-1 ex vivo activity, Mean % Veh Control (HSD-1; Mesenteric Fat, 16 hours) [%] | phosphorylated CREB, FIG. 2 (phosphorylated CREB) | short-term memory retention, FIG. 4 (Sprague Dawley rats) | increase of latency to first REM (Fisher rats) [%] | reduction of REM time (Fisher rats) [%] | reduction of number of REM sleep episodes (Fisher rats) [%] | reduction of total sleep time (Fisher rats) [%] | serotonin (5-HT) levels in the medial prefrontal cortex and in the hippocampus (serotonin (5-HT) levels) | ACh release under resting conditions (ACh release; acute) | ACh release under challenging conditions (novel cage), cortex and hippocampus (ACh release) |
| --- | --- | --- | --- | --- | --- | --- | --- | --- | --- | --- | --- | --- | --- | --- | --- | --- | --- |
| CC(C)(Oc1ccc(F)cc1Cl)C(=O)NC1C2CC3CC1CC(S(C)(=O)=O)(C3)C2 (centres unmarked) [Compound KK, 2-(2-Chloro-4-fluorophenoxy)-2-methyl-N-[(E)-5-(methylsulfonyl)-2-adamantyl]propanamide] | significant improvement in memory retention | potent ex vivo inhibition | 30 | 42 | 38 | 9 | 90 | 50 | increase in phosphorylated CREB | – | – | – | – | – | – | – | – |
| O=C(CN1CCN(c2ccc(C(F)(F)F)cn2)CC1)NC1C2CC3CC1CC(O)(C3)C2 (centres unmarked) [Compound MM, N-[(E)-5-Hydroxy-2-adamantyl]-2-{-4-[5-(trifluoromethyl)pyridin-2-yl]piperazin-1-yl}acetamide] | – | – | – | – | – | – | – | – | – | significant improvement in short-term memory retention | 62 | 23 | 16 | 10 | long-lasting increase | did not change ACh release | did not induce any further stimulation of ACh release |
